Results: patent publication US20200155555A1, “VITAMIN RECEPTOR DRUG DELIVERY CONJUGATES FOR TREATING INFLAMMATION” (Endocyte, Inc., priority 2007, published 2020)
“And” between values parts separate entries of the source, which are not always exact repeats. Equal entries are not always repeated.

What was measured:
[1] = Plasma pharmacokinetics after a single s.c. dose of EC0746 or aminopterin
Experimental: Female Lewis rats with rounded tip jugular vein catheters (Harlan) were fed regular rodent diet and used in this study. The animals were given a single subcutaneous dose of EC0746 at 500 nmol/kg. Whole blood samples (300 μl) were collected from the animals at the following time points: 1 min, 10 min, 30 min, 1 h, 2 h, 3 h, 4 h, and 8 h after injection. The blood samples were placed into anti-coagulant tubes containing 1.7 mg/mL of K3-EDTA and 0.35 mg/mL of N-Maleoyl-beta-alanine (0.35 mg/mL). Plasma samples were obtained by centrifugation for 3 min at ˜2,000 g and stored at −80° C. The amount of EC0746 and its released base drugs (EC0470 & aminopterin) were determined by HPLC using the EC0746 injection solution as the standard (see FIG. 14). […] A similar method was used to determine the plasma pharmacokinetics of aminopterin (see FIG. 15).
Thus, the plasma concentrations of EC0746 and two primary metabolites, AMT and AMT hydrazide, were determined by LC/MS/MS after a single subcutaneous EC0746 administration. […] For comparison, the pharmacokinetics of subcutaneously dosed AMT (500 nmol/kg) was also examined (FIG. 33B).

RAW264.7 cells = assay: XTT cell viability / proliferation assay; assay type: cell-based, murine
Experimental: After 2 h incubation, the drug-containing media were replaced and the cells were allowed to incubate further for 70 h. Four hours prior to the end of incubation, LPS was added to the treated cells at a final concentration of 100 ng/mL. 100 μL of the culture supernatants were collected for TNF-α analysis using a commercial ELISA kit.
RAW264.7 cells in 96-well plates were treated with vehicle (culture medium) or 10-fold serial dilutions of EC0932 without or with 100-fold excess free folate. The drug-containing medium was replaced after 2 h treatment and the cells were allowed to incubate further in standard medium for 70 h. Four hours prior to the end of incubation, LPS was added to the treated cells at a final concentration of 100 ng/mL. […] The cell viability was assessed by adding XTT (2,3-bis(2-methoxy-4-nitro-5-sulfo-phenyl)-2H-tetrazolium-5-carboxanilide) to the remaining medium for an additional 4 h following the manufacturer's instructions (Roche Applied Science, Indianapolis, Ind.).
At 4 h before the end of incubation, LPS (100 ng/ml) was added to the culture medium to stimulate cytokine production.

[2] = target: folate-receptor-beta positive CHO-FR-β cells (Homo sapiens, UniProt P14207); details: displacement of 3H-folic acid
[3] = Maximum tolerated dose (MTD) in healthy folate-deficient rats; assay type: in vivo
Experimental: Healthy rats were administered a subcutaneous injection of the indicated dose of aminopterin or EC0746 biweekly for 2 weeks; control animals, no treatment, 100 nmole/kg aminopterin, 50 nmole/kg aminopterin, 500 nmole/kg EC0746, or 2000 nmole/kg EC0746. The animals were weighed daily. See FIG. 16A, B. A dose of 0.1 μmol/kg of aminopterin in folate deficient rats is above the MTD; therefore, the projected MTD of EC0746 would be <0.5 μmol/kg based solely on ˜20% free drug release shown in the previous Example. However, the MTD of EC0746 is actually 2.0 μmol/kg, which is equivalent to 0.4 μmol/kg, or—8× higher than the MTD for free aminopterin. On a molar basis for total aminopterin, the MTD is 40× higher. The therapeutic index (MTD for healthy animals/ED50 for treatment of adjuvant-induced arthristis in female Lewis rats) for EC746 is about 9.5 (2000/210).
Since the toxicity of antifolates can be easily masked by rodent diets enriched with folate, healthy rats on a folate-deficient diet (Harlan) were used to determine the maximum-tolerated-dose levels (MTD) of EC0746, AMT and MTX. The animals were given biweekly injections of EC0746, AMT, and MTX for two weeks. The MTD dose was defined as the dose that had caused at least 13-14% weight loss combined with clinical signs of stress and at least one animal in the >MTD dose group needed to be euthanized. Standard hematologic and blood chemistry parameters were examined as needed along with histopathology. The MTDs of EC0746, MTX and AMT were determined to be 2000, 1000, and 50 nmol/kg, respectively. At above the MTD dose level, the main toxicities of EC0746 were similar to those of AMT and MTX, including manifested gastrointestinal distress (diarrhea), swollen muzzle, immunosuppression (bone marrow, thymus), low white-blood-cell count, low platelet count, and infections. […] Overall, EC0746 was approximately 40-fold less toxic than AMT and 2-fold less toxic than MTX on an equimolar basis in these folate-deficient animals; however, its toxicity profile at above MTD levels was not dissimilar from that of AMT and MTX.

[4] = target: folate receptors (FR-α) of KB cells (Homo sapiens, UniProt P15328); details: competitive binding with 3H-folic acid, FR-α positive KB cells
[5] = system: rats with adjuvant-induced arthritis (AIA); assay: Adjuvant-induced arthritis (AIA) model; details: for Splenomagly (% increase in spleen weight relative to healthy rats) / % Inhibition in paw edema / % Weight loss: AIA rats; for % Weight loss: Day 24 relative to first day of treatment
Experimental: Female Lewis rats were fed a folate-deficient diet (Harlan Teklad, Indianapolis, Ind.) for 9-10 days prior to arthritis induction. The adjuvant-induced arthritis (AIA) was induced by intradermal inoculation (at the base of tail) of 0.5 mg of heat-killed Mycobacteria butyricum (BD Diagnostic Systems, Sparks, Md.) in 100 μL light mineral oil (Sigma). Ten days after arthritis induction, paw edema in rats was assessed using a modified arthritis scoring system: 0=no arthritis; 1=swelling in one type of joint; 2=swelling in two types of joint; 3=swelling in three types of joint; 4=swelling of the entire paw. A total score for each rat is calculated by summarizing the scores for each of the four paws, giving a maximum score of 16 for each rat. On Day 10 post arthritis induction, rats with a total arthritis score of ≥2 were removed from the study and the remaining rats were distributed evenly across the control and treatment groups (n=5 for all groups except that n=2-3 for healthy controls). All treatments started on Day 10 unless mentioned otherwise. […]
Rats with adjuvant arthritis were treated subcutaneously with EC0932 (250 nmol/kg) in the absence or presence of 500-fold excess of EC0923 (125 μmol/kg) on days 10, 13, 17, and 20 post arthritis induction. The animals in the healthy and arthritis control groups were left untreated. The arthritis scores and animal body weights were recorded three times a week (see FIG. 19A, B). At the completion of study (day 24), the rats were euthanized by CO2 asphyxiation and processed for paw and spleen weights (see FIG. 20A, B).
The rat adjuvant induced arthritis (AIA) model resembles the characteristics of RA in humans and has been widely used to study the impact of novel anti-inflammatory agents.

[6] = single sc dose of EC0746, 500 nmole/kg, rats
[7] = etanercept s.c. 10 mg/kg once every 3 days

folate receptors (FR-α) of KB cells, sequence (P15328 25-234): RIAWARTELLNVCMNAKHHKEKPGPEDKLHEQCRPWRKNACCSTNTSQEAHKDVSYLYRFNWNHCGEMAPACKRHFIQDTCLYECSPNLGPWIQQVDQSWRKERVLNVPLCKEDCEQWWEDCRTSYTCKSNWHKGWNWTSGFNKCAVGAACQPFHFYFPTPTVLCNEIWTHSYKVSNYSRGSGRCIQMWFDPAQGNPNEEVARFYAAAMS
folate-receptor-beta positive CHO-FR-β cells, sequence (P14207 17-230): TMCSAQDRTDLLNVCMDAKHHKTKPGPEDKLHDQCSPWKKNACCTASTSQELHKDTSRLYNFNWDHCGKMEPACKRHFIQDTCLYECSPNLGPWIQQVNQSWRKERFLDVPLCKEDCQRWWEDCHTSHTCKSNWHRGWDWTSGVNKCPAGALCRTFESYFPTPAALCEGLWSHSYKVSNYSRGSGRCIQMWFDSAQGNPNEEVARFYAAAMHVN

NNC(=O)CC[C@H](NC(=O)c1ccc(NCc2cnc3nc(N)nc(N)c3n2)cc1)C(=O)O [EC0470, aminopterin gamma-hydrazide]
delay of peak plasma appearance from the EC0746 Cmax ([1]; EC0746-dosed rats, sc 500 nmol/kg): 30 min | Tmax of released base drug in plasma ([1]; after single sc dose of EC0746, 500 nmol/kg, rats): ~60 min | potency on cell proliferation and LPS-stimulated TNF-α production (RAW264.7 cells; 72 h incubations of RAW264.7 macrophages): equally potent

N=c1[nH]c(N)nc2ncc(CNc3ccc(C(=O)N[C@@H](CCC(=O)NNC(=O)OCCSSC[C@H](NC(=O)[C@H](CCC(=O)NC[C@H](O)[C@@H](O)[C@H](O)[C@H](O)CO)NC(=O)[C@H](CCC(=O)O)NC(=O)[C@H](CCC(=O)NC[C@H](O)[C@@H](O)[C@H](O)[C@H](O)CO)NC(=O)[C@H](CCC(=O)O)NC(=O)[C@H](CCC(=O)NC[C@H](O)[C@@H](O)[C@H](O)[C@H](O)CO)NC(=O)CC[C@H](NC(=O)c4ccc(NCc5cnc6nc(N)[nH]c(=O)c6n5)cc4)C(=O)O)C(=O)O)C(=O)O)cc3)nc12 [EC0746]
bioavailability after subcutaneous administration ([1]; rats): bioavailable after subcutaneous administration | elimination half-life of EC0746 ([1]; single sc dose of EC0746, 500 nmol/kg, rats): ~35 min | Area Under Curve for free drug (aminopterin+aminopterin hydrazide) [1, 6]: 7.3 nmol·min/mL | Cmax for free drug (aminopterin+aminopterin hydrazide) [1, 6]: 34 nM | Cmax for free drug as % of the total dose [1, 6]: 9.6% | time of Cmax for free drug (aminopterin+aminopterin hydrazide) [1, 6]: 60 min | Relative affinity to folate receptors (folic acid set as 1) [2]: 0.27 | therapeutic index (MTD for healthy animals/ED50 in AIA) ([3]; 2000/210): about 9.5 | MTD relative to MTD for free aminopterin, based on ~20% free drug release (0.4 μmol/kg equivalent) ([3]; rat, in vivo): 8 × | MTD relative to free aminopterin on a molar basis for total aminopterin ([3]; rat, in vivo): 40 × | gastrointestinal-associated toxicities at MTD dose ([3]; rats): showed less gastrointestinal-associated toxicities than AMT and MTX | Relative affinity to folate receptors (folic acid set as 1) [4]: 0.5 | EC50 (RAW264.7 cells; 2 h treatment, then 70-72 h in drug-free medium, read-out: EC50 (ED50), viability/proliferation of RAW264.7 cells, XTT assay): 0.3 nM and ~0.3 nM

Nc1nc2ncc(CNc3ccc(C(=O)N[C@@H](CCC(=O)N[C@H](CC(=O)O)C(=O)N[C@H](CC(=O)O)C(=O)O)C(=O)O)cc3)nc2c(=O)[nH]1 [EC0923]
Relative affinity to folate receptors (folic acid set as 1) [4]: 0.84 | effect on development or severity of AIA ([5]; EC0923 alone, 125 μmol/kg/dose biweekly 2 weeks): did not have any impact on the development or severity of the disease | dorsal to ventral paw thickness ([5]; EC0923 alone, 125 μmol/kg/dose biweekly, arthritic control ~9.8, healthy ~5.8): ~9.4 mm | mean sum of histology scores (maximum 20) ([5]; EC0923 alone, 125 μmol/kg/dose biweekly, arthritic control ~15.3): 14.2

Nc1nc(N)c2nc(CNc3ccc(C(=O)N[C@@H](CCC(=O)O)C(=O)O)cc3)cnc2n1 [aminopterin]
delay of peak plasma appearance from the EC0746 Cmax ([1]; rat, in vivo, sc, 500 nmol/kg): 30 min | MTD at 2 weeks ([3]; rat, in vivo, folate deficient rats, sc biweekly for 2 weeks): < 0.1 µmol/kg | lethality to AIA rats ([5]; AMT mixed with free folic acid (1:1), 500 nmol/kg/dose, biweekly): 100%

CN(Cc1cnc2nc(N)nc(N)c2n1)c1ccc(C(=O)N[C@@H](CCC(=O)O)C(=O)O)cc1 [methotrexate]
Relative affinity to folate receptors (folic acid set as 1) [2]: 0.005 | Relative affinity to folate receptors (folic acid set as 1) [4]: 0.018 | Splenomagly (% increase in spleen weight relative to healthy rats) ([5]; oral, 250 nmol/kg biw): 42 ± 17% | % Inhibition in paw edema ([5]; oral, 250 nmol/kg biw, Day 24): 70 ± 5% | % Weight loss ([5]; oral, 250 nmol/kg biw): −14 ± 2% | % Weight loss ([5]; oral, 1650 nmol/kg qw): −10 ± 2% | % Inhibition in paw edema ([5]; oral, 1650 nmol/kg qw, calculated based on arthritis scores on Day 24): 47 ± 10 % | Splenomagly (% increase in spleen weight relative to healthy rats) ([5]; sc, 250 nmol/kg biw): 24 ± 3% | % Inhibition in paw edema ([5]; sc, 250 nmol/kg biw, Day 24): 78 ± 10% | % Weight loss ([5]; sc, 250 nmol/kg biw): −2 ± 4% | Splenomagly (% increase in spleen weight relative to healthy rats) ([5]; sc, 500 nmol/kg biw): 20 ± 4% | % Inhibition in paw edema ([5]; sc, 500 nmol/kg biw, Day 24): 88 ± 7% | % Weight loss ([5]; sc, 500 nmol/kg biw): −2 ± 7% | decrease in dorsal to ventral paw thickness ([5]; oral MTX 250 nmol/kg biweekly): 63% | decrease in summed histological score ([5]; oral MTX 250 nmol/kg biweekly): 73% | reductions in all scored histology parameters vs untreated controls ([5]; oral MTX 250 nmol/kg biweekly): 66-84% | blocking of anti-arthritic activity by folate competitor ([5]; s.c. MTX 250 nmol/kg/dose with 500-fold excess EC0923): not significantly blocked by excess EC0923 | effect on development and severity of arthritis ([5]; s.c. MTX 250 nmol/kg/dose, 2 weeks): significantly improved the development and severity of arthritis | reduction of local (paw) and systemic (spleen) inflammation ([5]; sc 300 nmol/kg on days 10, 13, 17, 20): similarly active in reducing local (paw) and systemic (spleen) inflammation

etanercept
Splenomagly (% increase in spleen weight relative to healthy rats) ([5]; sc, 10 mg/kg q3d): 42 ± 7% | % Inhibition in paw edema ([5]; sc, 10 mg/kg q3d, Day 24): 46 ± 9% | % Weight loss ([5]; sc, 10 mg/kg q3d): −15 ± 2% | decrease in dorsal to ventral paw thickness [5, 7]: 40% | decrease in summed histological score [5, 7]: 43% | reduction in bone resorption (histology) [5, 7]: 55% | reduction in inflammation (histology) [5, 7]: 42%
